Counter-ions that a name gives are not always drawn. Like-named read-outs stand apart in the source and are kept apart here.
Tests used:
[1] = system: tactile allodynia in the rat Chung model (L5/L6 spinal nerve ligation); test: Chung model: reversal of tactile allodynia (von Frey hairs) after spinal nerve ligation; type: in vivo; settings: read-out: Peak % Pain reversal: time post dose; for inhibition in vivo at 0.3 mg/kg: 300 μg/kg IP; for inhibition in vivo at 1 mg/kg: 1000 μg/kg IP
Description: An art-accepted model or assay for measuring an analgesic effect of a compound in chronic pain (in particular peripheral neuropathy) is the model known as Kim and Chung 1992, Pain […], pp 355-363 (Chung model). This model involves the surgical ligation of the L5 (and optionally the L6) spinal nerves on one side in experimental animals. Rats recovering from the surgery gain weight and display a level of general activity similar to that of normal rats. However, these rats develop abnormalities of the foot, wherein the hindpaw is moderately everted and the toes are held together. More importantly, the hindpaw on the side affected by the surgery appears to become sensitive to low-threshold mechanical stimuli and will perceive pain instead of the faint sensation of touch. This sensitivity to normally non-painful touch, called “tactile allodynia”, develops within the first week after surgery and lasts for at least two months. The allodynia response includes lifting the affected hindpaw to escape from the stimulus, licking the paw and holding it in the air for many seconds. None of these responses is normally seen in the control group.
To produce the tactile allodynia, rats are anesthetized before surgery. The surgical site is shaved and prepared either with betadine or Novacaine. Incision is made from the thoracic vertebra Xlll down toward the sacrum. Muscle tissue is separated from the spinal vertebra (left side) at the L4-S2 levels. The L6 vertebra is located and the transverse process is carefully removed with a small rongeur to expose the L4-L6 spinal nerves. The L5 and L6 spinal nerves are isolated and tightly ligated with 6-0 silk thread. The same procedure is done on the right side as a control, except no ligation of the spinal nerves is performed.
After a complete hemostasis is confirmed, the wounds are sutured. A small amount of antibiotic ointment is applied to the incised area, and the rat is transferred to the recovery plastic cage under a regulated heat-temperature lamp.
On the day of the experiment, at least seven days after the surgery, typically six rats per test group are administered the test drugs by intraperitoneal (i.p.) injection or oral gavage (p.o.). For i.p. administration, the compounds are formulated in H2O and given in a volume of 1 ml/kg body weight by injecting into the intraperitoneal cavity. For p.o. administration, the compounds are formulated in H2O and given in a volume of 1 ml/kg body weight using an 18-gauge, 3 inch gavage needle that is slowly inserted through the esophagus into the stomach.
Tactile allodynia is assessed via von Frey hairs, which are a series of fine hairs with incremental differences in stiffness. Rats are placed in a plastic cage with a wire mesh bottom and allowed to acclimate for approximately 30 minutes. To establish the pre-drug baseline, the von Frey hairs are applied perpendicularly through the mesh to the mid-plantar region of the rats' hindpaw with sufficient force to cause slight buckling and held for 6-8 seconds. The applied force has been calculated to range from 0.41 to 15.1 grams. If the paw is sharply withdrawn, it is considered a positive response. A normal animal will not respond to stimuli in this range, but a surgically ligated paw will be withdrawn in response to a 1-2 gram hair. The 50% paw withdrawal threshold is determined using the method of Dixon, W. J., Ann. Rev. Pharmacol. Toxicol. 20:441-462 (1980) hereby incorporated by reference. Tactile allodynia is measured prior to and 15, 30, and 60 minutes after drug administration. The post-drug threshold is compared to the pre-drug threshold and the percent reversal of tactile sensitivity is calculated based on a normal threshold of 15.1 grams.
Table 1 below indicates the degree of pain reversal obtained in the Chung model with exemplary compounds used in accordance with the invention. […]

GlcCer synthase (GCS) = target: T1, GlcCer synthase (GCS) (Homo sapiens, UniProt Q16739); settings: cited from earlier work
T1 sequence (Q16739 1-394): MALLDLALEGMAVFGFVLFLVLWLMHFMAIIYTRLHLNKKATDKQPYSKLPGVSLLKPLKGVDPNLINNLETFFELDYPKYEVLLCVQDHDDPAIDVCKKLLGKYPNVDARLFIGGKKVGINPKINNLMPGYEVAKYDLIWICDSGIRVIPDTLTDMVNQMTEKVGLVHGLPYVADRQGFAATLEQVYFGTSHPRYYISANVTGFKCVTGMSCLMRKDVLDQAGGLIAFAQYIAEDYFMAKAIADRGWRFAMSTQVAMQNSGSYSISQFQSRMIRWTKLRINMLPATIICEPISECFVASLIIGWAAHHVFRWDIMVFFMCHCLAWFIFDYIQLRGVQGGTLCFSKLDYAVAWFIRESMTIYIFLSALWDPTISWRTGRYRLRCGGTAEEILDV

[2] = system: glycosphingolipid biosynthesis; settings: via inhibition of glycosphingolipid biosynthesis; cited from earlier work
synaptic function = settings: cited from earlier work
[3] = system: transient forebrain ischemia in rats; settings: treatment after transient forebrain ischemia in rats; 8-arm maze task; cited from earlier work
[4] = 1 h, 30 μg/kg IP, peak at 60 min post dose

N[C@@H](CN1CCOCC1)[C@@H](O)c1ccccc1 (as salt: hydrochloride) [Compound 2, L-threo-2-Amino-3-morpholino-1-phenylpropan-1-ol dihydrochloride]
melting point: 166.4 to 170.9 °C

N[C@@H](CN1CCCC1)[C@@H](O)c1ccc2c(c1)OCCO2 (racemic) [Compound 6, DL-threo-2-Amino-1-(2,3-dihydrobenzo[b][1,4]dioxin-6-yl)-3-(pyrrolidin-1-yl)propan-1-ol]
inhibition in vivo at 0.03 mg/kg [1, 4]: 92%

CCCCCCCCCC(=O)N[C@@H](CN1CCCC1)[C@@H](O)c1ccc2c(c1)OCCO2 (racemic) [Compound 7, N-(DL-threo-1-(2,3-dihydrobenzol[b][1,4]dioxin-6-yl)-1-hydroxy-3-(pyrrolidin-1-yl)propan-2-yl)decanamide]
inhibition in vivo at 0.001 mg/kg ([1]; 0.5 h, 1 μg/kg IP, peak at 30 min post dose): 26%

COc1ccc([C@H](O)[C@@H](N)CN2CCCC2)cc1 (racemic) [Compound 9, DL-threo-2-Amino-1-(4-methoxyphenyl)-3-(pyrrolidin-1-yl)propan-1-ol]
inhibition in vivo at 0.03 mg/kg [1, 4]: 88%

N[C@@H](C(=O)N1CCCC1)[C@@H](O)c1ccc(Cl)c(Cl)c1 (racemic) [Compound 15, DL-threo-2-Amino-3-(3,4-dichlorophenyl)-3-hydroxy-1-(pyrrolidin-1-yl)propan-1-one hydrochloride]
inhibition in vivo at 0.3 mg/kg ([1]; 1 h, peak at 60 min post dose): 42%

N[C@@H](C(=O)N1CCCC1)[C@@H](O)c1ccccc1 (racemic) [Compound 16, DL-threo-2-Amino-3-hydroxy-3-phenyl-1-(pyrrolidin-1-yl)propan-1-one hydrochloride]
inhibition in vivo at 0.3 mg/kg ([1]; 1 h, peak at 60 min post dose): 93%

Cc1ccc([C@H](O)[C@@H](N)C(=O)N2CCCC2)cc1 (racemic) [Compound 17, DL-threo-2-Amino-3-hydroxy-1-(pyrrolidin-1-yl)-3-p-tolylpropan-1-one hydrochloride]
inhibition in vivo at 0.3 mg/kg ([1]; 1 h, peak at 60 min post dose): 100%

CCCCCCCCCC(=O)N[C@@H](CN1CCOCC1)[C@H](O)c1ccccc1 (racemic) [DL-erythro-PDMP, 1-Phenyl-2-decanoylamino-3-morpholino-1-propanol, reference compound]
inhibition in vivo at 1 mg/kg ([1]; 0.5 h, peak at 30 min post dose): 68%

N[C@@H](CN1CCOCC1)[C@@H](O)c1ccccc1 [Compound 2, L-threo-2-Amino-3-morpholino-1-phenylpropan-1-ol dihydrochloride]
inhibition in vivo at 0.1 mg/kg ([1]; 1 h, 100 μg/kg IP, peak at 60 min post dose): 91%

C[C@H](N[C@H](CN1CCOCC1)[C@H](O)c1ccccc1)c1ccccc1 [Compound 5, D-threo-2-((S)-1-Phenylethylamino)-3-morpholino-1-phenylpropan-1-ol dihydrochloride]
inhibition in vivo at 0.3 mg/kg ([1]; 1 h, peak at 60 min post dose): 85%

CCCCCCCCCCCCCCCC(=O)N[C@H](CN1CCCC1)[C@H](O)c1ccc(O)cc1 [D-threo-4′-hydroxy-P4]
inhibition of GCS (GlcCer synthase (GCS)): one of the most potent inhibitor of GCS

CCCCCCCCCC(=O)N[C@H](CN1CCOCC1)[C@H](O)c1ccccc1 [D-threo-PDMP, 1-Phenyl-2-decanoylamino-3-morpholino-1-propanol]
inhibition in vivo at 1 mg/kg ([1]; 1 h, peak at 60 min post dose): 77% | antitumor activity [2]: has antitumor activity | effect on synaptic function (synaptic function): suppresses synaptic function

CCCCCCCCCC(=O)N[C@@H](CN1CCOCC1)[C@@H](O)c1ccccc1 [L-threo-PDMP, (1S,2S)-1-phenyl-2-decanoylamino-3-morpholino-1-propanol, reference compound]
inhibition in vivo at 0.03 mg/kg ([1]; 0.5 h, 30 μg/kg PO, peak at 30 min post dose): 100% | deficit of a well learned spatial memory [3]: ameliorated the deficit

O=C(N[C@H](CN1CCCC1)[C@H](O)c1ccccc1)OCc1ccccc1 [PBPP, D-threo-1-phenyl-2-benzyloxycarbonylamino-3-pyrrolidino-1-propanol]
inhibition of GCS (GlcCer synthase (GCS)): potent GCS inhibitor
